Assay results: article PMC9669019, “Molecular basis for integrin adhesion receptor binding to p21-activated kinase 4 (PAK4)” (Communications Biology, 2022)
Ends that are not written are not given here.

How the values were obtained:
GFP-PAK4-cat = experiment: GST-integrin β5 fusion pull-down of GFP-PAK4-cat expressed in cells; format: binding, human; conditions: Figure 1C source data
Description: (§1) For pulldowns from cell lysates, human PAK4 constructs were generated in pEGFP (Takara Bio Inc.) by PCR amplification from a pLX304 PAK4 isoform 1 (Uniprot O96013-1) construct kindly provided by Michael Calderwood (Dana-Farber Cancer Institute). Mutations and deletions were introduced by QuikChange mutagenesis or PCR amplification. Chinese hamster ovary (CHO) cells were seeded on 10 cm tissue culture dishes and transiently transfected with GFP-tagged constructs using polyethylenimine (Polysciences). After 24 h, cells were harvested and lysed in buffer X (1 mM NaVO4, 50 mM NaF, 40 mM sodium pyrophosphate, 50 mM NaCl, 150 mM sucrose, 10 mM Pipes, pH 6.8) containing 0.5% Triton X-100, 0.2% deoxycholic acid, and complete EDTA-free protease inhibitor mixture (Roche, Indianapolis, IN, USA) for 15 min at 4 °C. After clarification by centrifugation, lysate was diluted in buffer X-T (buffer X with 0.05% Triton X-100) and incubated with His-tagged integrin tails coupled to Ni-NTA beads for 4 h with rocking at 4 °C. For experiments using purified PAK4cat, protein was incubated with His-tagged integrin tails coupled to Ni-NTA beads in buffer X-T for 2 h with rocking at 4 °C. Beads were then washed three times with buffer X-T, and bound proteins were fractionated by reducing SDS-PAGE and analyzed by immunoblotting with anti-GFP antibodies (600-101-215, Rockland). Immunoblots were imaged on an Odyssey IR imaging system (Li-Cor; Lincoln, NE, USA) and analyzed using Image Studio Lite (Li-Cor; Lincoln, NE, USA). For the quantification of binding from immunoblots, the fluorescence intensity of the band corresponding to bound material was quantified as a fraction of the fluorescence of the input material band for each condition. Loading of integrin tails was assessed by Coomassie Blue staining. Data were analyzed using GraphPad Prism.

GFP-PAK4-Δcat = experiment: GST-integrin β5 fusion pull-down of GFP-PAK4-Δcat expressed in cells; format: binding, human; conditions: Figure 1C source data
Description: as §1

PAK4-cat = experiment: Pull-down of purified recombinant PAK4-cat by His-tagged integrin tails on Ni-NTA beads; format: binding, human
Description: Pull down assays were performed as previously described[45],[60]. Briefly, constructs encoding an N-terminal His-tag followed by a helical region, a 4-glycine spacer, and an integrin cytoplasmic tail sequence were produced in BL21 (DE3) bacteria. Following bacterial cell lysis, recombinant protein was bound to Ni-NTA beads, eluted with imidazole, dialyzed and further purified by reverse-phase high-performance liquid chromatography (HPLC). Purified protein was lyophilized for storage and was used to coat fresh Ni-NTA beads to generate an affinity matrix for pull-down assays.
as §1

PAK4cat = experiment: Radioactive kinase assay with MBP as substrate; format: biochemical, human; conditions: in vitro kinase assay, full-length tail 6-50 μM
Description: Impact of full-length cytosolic integrin β5 on kinase activity was assessed using a radioactive assay with myelin basic protein (MBP) as substrate. Assays were performed by addition of 0.1 µM of PAK4cat kinase, 2 µM of MBP, cytosolic full-length integrin β5 ^743–799 (50, 25, 12, and 6 μM), with 12 µM of cold ATP and 0.05 µCi of hot [γ33-P] ATP in Tris buffer (20 mM Tris-HCl (pH 8.0), 0.3 M NaCl, 1 mM TCEP, and 10 mM MgCl2) with a total volume of 25 µL. The reaction was conducted at 30 °C for 7–11 min then stopped by the addition of 5× sample buffer and analyzed by SDS-PAGE. Dried gels were analyzed by exposure to phosphor storage screen (GE Healthcare) followed by scanning using a Molecular Imager FX Pro Plus System (Bio-Rad) and quantified by optical densitometry Quantity One (Bio-Rad). Measurements were calculated from three independent experiments. Significant differences were calculated by Prism 7 (GraphPad Software) with ANOVA analysis. Impact of short integrin β5 peptide on kinase activity was assessed using a radioactive assay with a LIM kinase peptide (RKKRYTVVGN, LIMtide) as substrate. The concentration of PAK4 and LIMtide were kept constant at 0.2 and 50 µM, respectively. […] Duplicate measurements were calculated from three independent experiments. […]

PAK4 = molecular target: T1, PAK4 (Homo sapiens, UniProt O96013); experiment: In vitro phosphorylation of integrin β5 tail by PAK4; format: biochemical; conditions: in vitro kinase assay, Fig. 5a
T1 construct: catalytic domain of PAK4 (UniProt ID:O96013) was sub-cloned into a modified pET28a vector; 6xHis (TEV-cleavable) (N); made in house; host or cells: E. coli BL21-CodonPlus(DE3)RILP
T1 sequence (O96013 321-572 limits assumed): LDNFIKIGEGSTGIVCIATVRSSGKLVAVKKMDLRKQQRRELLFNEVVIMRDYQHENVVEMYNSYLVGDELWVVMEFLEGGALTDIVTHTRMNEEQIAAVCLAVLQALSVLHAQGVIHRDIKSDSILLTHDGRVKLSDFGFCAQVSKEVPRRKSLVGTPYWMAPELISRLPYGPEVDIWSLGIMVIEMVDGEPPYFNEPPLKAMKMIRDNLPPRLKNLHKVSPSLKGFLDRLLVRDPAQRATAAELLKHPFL

PAK6 = experiment: In vitro phosphorylation of integrin β5 tail by PAK6; format: biochemical; conditions: in vitro kinase assay, Fig. 5a

## B5 746-758: GST-fusion truncation of integrin β5 tail ending at residue 758 (VTIHDRREFAKFQ; also: GST fusion, end not given here; UniProt P18084 746-758, looked up, fragment)
GFP-PAK4-cat; bound band as fraction of input, replicate column 1 of 7
  PAK4 Cat bound (pull-down quantification): 0.2198
GFP-PAK4-cat; replicate column 6 of 7
  PAK4 Cat bound (pull-down quantification): 0.1642
GFP-PAK4-cat; replicate column 7 of 7
  PAK4 Cat bound (pull-down quantification): 0.1513
GFP-PAK4-Δcat; replicate 3
  PAK4 Nterm bound (pull-down quantification): 0
GFP-PAK4-Δcat; replicate 4
  PAK4 Nterm bound (pull-down quantification): 0.03887
GFP-PAK4-Δcat; replicate 5
  PAK4 Nterm bound (pull-down quantification): 0.08311
GFP-PAK4-Δcat; replicate 6
  PAK4 Nterm bound (pull-down quantification): 0
GFP-PAK4-Δcat; replicate 7
  PAK4 Nterm bound (pull-down quantification): 0

## B5 746-762: GST-fusion truncation of integrin β5 tail ending at residue 762 (VTIHDRREFAKFQSERS; also: GST fusion, end not given here; UniProt P18084 746-762, looked up, fragment)
GFP-PAK4-cat; replicate column 6 of 7
  PAK4 Cat bound (pull-down quantification): 0.1712
GFP-PAK4-cat; replicate column 7 of 7
  PAK4 Cat bound (pull-down quantification): 0.5556
GFP-PAK4-Δcat; replicate 6
  PAK4 Nterm bound (pull-down quantification): 0
GFP-PAK4-Δcat; replicate 7
  PAK4 Nterm bound (pull-down quantification): 0

## integrin β5 cytoplasmic tail: Recombinant His-tagged integrin β5 cytoplasmic tail, residues 743–799 (KLLVTIHDRREFAKFQSERSRARYEMASNPLYRKPISTHTVDFTFNKFNKSYNGTVD; also: 6xHis tag)
PAK4-cat; 5 nM PAK4Cat, replicate 2
  PAK4Cat bound to tail (pull-down quantification): 4.211
PAK4-cat; 50 nM PAK4Cat, replicate 1
  PAK4Cat bound to tail (pull-down quantification): 47.6856
PAK4-cat; 50 nM PAK4Cat, replicate 2
  PAK4Cat bound to tail (pull-down quantification): 66.5041
PAK4-cat; 100 nM PAK4Cat, replicate 1
  PAK4Cat bound to tail (pull-down quantification): 90.1913
PAK4-cat; 100 nM PAK4Cat, replicate 2
  PAK4Cat bound to tail (pull-down quantification): 166.368
PAK4-cat; 200 nM PAK4Cat, replicate 1
  PAK4Cat bound to tail (pull-down quantification): 112.727
PAK4-cat; 200 nM PAK4Cat, replicate 2
  PAK4Cat bound to tail (pull-down quantification): 69.6949
PAK4-cat; 500 nM PAK4Cat, replicate 1
  PAK4Cat bound to tail (pull-down quantification): 260.384
PAK4-cat; 500 nM PAK4Cat, replicate 2
  PAK4Cat bound to tail (pull-down quantification): 185.982
PAK4-cat; 750 nM PAK4Cat, replicate 2
  PAK4Cat bound to tail (pull-down quantification): 239.04
PAK4-cat; 1000 nM PAK4Cat, replicate 1
  PAK4Cat bound to tail (pull-down quantification): 443.221
PAK4-cat; 1000 nM PAK4Cat, replicate 2
  PAK4Cat bound to tail (pull-down quantification): 367.326
PAK4-cat; 2000 nM PAK4Cat, replicate 2
  PAK4Cat bound to tail (pull-down quantification): 619.089
PAK4-cat; 2000 nM PAK4Cat, replicate 3
  PAK4Cat bound to tail (pull-down quantification): 750
PAK4-cat; 3000 nM PAK4Cat, replicate 1
  PAK4Cat bound to tail (pull-down quantification): 966.407
PAK4-cat; 3000 nM PAK4Cat, replicate 2
  PAK4Cat bound to tail (pull-down quantification): 705.982
PAK4-cat; 4000 nM PAK4Cat, replicate 2
  PAK4Cat bound to tail (pull-down quantification): 871.714
PAK4-cat; 5000 nM PAK4Cat, replicate 3
  PAK4Cat bound to tail (pull-down quantification): 875
PAK4-cat; Figure 1D source data, 5 nM PAK4Cat, replicate 1
  PAK4Cat bound to tail (pull-down quantification): 9.128
PAK4cat
  Effect on PAK4 catalytic activity: suppression of catalytic activity
PAK4
  Kinase activity of PAK4 towards the integrin β5 tail (phosphorylation, words): negligible
PAK6
  Phosphorylation of integrin β5 by PAK6: does not display strong phosphorylation
